Patent US9849130B2 (KamTek, Inc., priority 2014, dated 2017)
In brackets after ≈: the same amount, converted by molar mass. Several values for one entry are separate records, joined by “and”; a condition that tells them apart may be missing. Equal values may be shown once. Read-outs that look alike come from different tables or passages of the source.

Key:
[1] = system: Clostridium difficile (CD) strains; test: microbe, parasite or virus in culture; assay type: cell-based
Enterococci faecium = test: MIC by microdilution in Mueller-Hinton broth against Enterococci faecium strains; assay type: cell-based, Enterococcus faecium; settings: Enterococcus faecium, Mueller-Hinton broth, read-out: MIC
[2] = system: Staphylococcus aureus strains; test: MIC by microdilution in Mueller-Hinton broth against Staphylococcus aureus strains; assay type: cell-based; settings: Staphylococcus aureus
Enterococcus faecalis = test: MIC by microdilution in Mueller-Hinton broth against Enterococcus faecalis strains; assay type: cell-based; settings: Enterococcus faecalis
Escherichia coli strains = test: MIC by microdilution in Mueller-Hinton broth against Escherichia coli strains; assay type: cell-based; settings: Escherichia coli, Mueller-Hinton broth, read-out: MIC

With `CC1(C)CC(N=c2cc3n(-c4ccc(Cl)c(Cl)c4)c4ccccc4nc-3cc2Nc2ccc(Cl)c(Cl)c2)CC(C)(C)N1` [B4100] the MIC [1] was 0.25 µg/mL and 0.125 µg/mL.

`CC1(C)S[C@@H]2[C@H](NC(=O)[C@H](N)c3ccccc3)C(=O)N2[C@H]1C(=O)O` [AMP, ampicillin] showed an MIC (Enterococci faecium; E. faecium NR 31903) of over 32 µg/mL, an MIC (Enterococci faecium; E. faecium NR 31909) of over 32 µg/mL and an MIC (Enterococci faecium; E. faecium NR 31912) of over 32 µg/mL. It also gave an MIC (Enterococci faecium; E. faecium NR 31915) of 2 µg/mL (≈ 5.72 µM), an MIC (Enterococci faecium; E. faecium NR 31916) of over 32 µg/mL and an MIC ([2]; S. aureus NR 10129, read-out: MIC) of over 32 µg/mL. It also gave an MIC ([2]; S. aureus NR 10186, read-out: MIC) of over 32 µg/mL, an MIC ([2]; S. aureus NR 10187, read-out: MIC) of 8 µg/mL (≈ 22.9 µM) and an MIC ([2]; S. aureus NR 10188, read-out: MIC) of 16 µg/mL (≈ 45.8 µM). It also gave an MIC ([2]; S. aureus NR 10189, read-out: MIC) of 32 µg/mL (≈ 91.6 µM), an MIC ([2]; S. aureus NR 10191, read-out: MIC) of over 32 µg/mL and an MIC ([2]; S. aureus NR 10192, read-out: MIC) of 32 µg/mL (≈ 91.6 µM). It also gave an MIC ([2]; S. aureus NR 10193, read-out: MIC) of over 32 µg/mL, an MIC ([2]; S. aureus NR 10194, read-out: MIC) of 2 µg/mL (≈ 5.72 µM) and an MIC ([2]; S. aureus NR 10198, read-out: MIC) of over 32 µg/mL. The MIC ([2]; Staphylococcus aureus strain NR 10129, read-out: MIC) was over 32 µg/mL, the MIC ([2]; Staphylococcus aureus strain NR 10186, read-out: MIC) was over 32 µg/mL and the MIC ([2]; Staphylococcus aureus strain NR 10187, read-out: MIC) was 8 µg/mL (≈ 22.9 µM). The MIC ([2]; Staphylococcus aureus strain NR 10188, read-out: MIC) was 16 µg/mL (≈ 45.8 µM), the MIC ([2]; Staphylococcus aureus strain NR 10189, read-out: MIC) was 32 µg/mL (≈ 91.6 µM) and the MIC ([2]; Staphylococcus aureus strain NR 10191, read-out: MIC) was over 32 µg/mL. The MIC ([2]; Staphylococcus aureus strain NR 10192, read-out: MIC) was 32 µg/mL (≈ 91.6 µM), the MIC ([2]; Staphylococcus aureus strain NR 10193, read-out: MIC) was over 32 µg/mL and the MIC ([2]; Staphylococcus aureus strain NR 10194, read-out: MIC) was 2 µg/mL (≈ 5.72 µM). It also gave an MIC ([2]; Staphylococcus aureus strain NR 10198, read-out: MIC) of over 32 µg/mL, an MIC (Enterococcus faecalis; E. faecalis NR 31884, read-out: MIC) of 4 µg/mL (≈ 11.4 µM) and an MIC (Enterococcus faecalis; E. faecalis NR 31885, read-out: MIC) of 4 µg/mL (≈ 11.4 µM). It also gave an MIC (Enterococcus faecalis; E. faecalis NR 31886, read-out: MIC) of 4 µg/mL (≈ 11.4 µM), an MIC (Enterococcus faecalis; E. faecalis NR 31887, read-out: MIC) of 0.5 µg/mL (≈ 1.43 µM) and an MIC (Enterococcus faecalis; E. faecalis NR 31888, read-out: MIC) of 4 µg/mL (≈ 11.4 µM). For the same compound, the MIC (Escherichia coli strains; E. coli NR 6) was 2 µg/mL (≈ 5.72 µM), the MIC (Escherichia coli strains; E. coli NR 8) was 4 µg/mL (≈ 11.4 µM) and the MIC (Escherichia coli strains; E. coli NR 96) was 4 µg/mL (≈ 11.4 µM). For the same compound, the MIC (Escherichia coli strains; E. coli NR 104) was 4 µg/mL (≈ 11.4 µM), the MIC (Escherichia coli strains; E. coli NR 17626) was 4 µg/mL (≈ 11.4 µM) and the MIC (Escherichia coli strains; E. coli NR 17627) was 4 µg/mL (≈ 11.4 µM). The MIC (Escherichia coli strains; E. coli NR 17633) was 4 µg/mL (≈ 11.4 µM), the MIC (Escherichia coli strains; E. coli NR 17647) was 4 µg/mL (≈ 11.4 µM) and the MIC (Escherichia coli strains; E. coli NR 17650) was 4 µg/mL (≈ 11.4 µM). For the same compound, the MIC (Escherichia coli strains; E. coli NR 17661) was over 32 µg/mL, the MIC (Escherichia coli strains; Escherichia coli strain NR 6) was 2 µg/mL (≈ 5.72 µM) and the MIC (Escherichia coli strains; Escherichia coli strain NR 8) was 4 µg/mL (≈ 11.4 µM). The MIC (Escherichia coli strains; Escherichia coli strain NR 96) was 4 µg/mL (≈ 11.4 µM), the MIC (Escherichia coli strains; Escherichia coli strain NR 104) was 4 µg/mL (≈ 11.4 µM) and the MIC (Escherichia coli strains; Escherichia coli strain NR 17626) was 4 µg/mL (≈ 11.4 µM). For the same compound, the MIC (Escherichia coli strains; Escherichia coli strain NR 17627) was 4 µg/mL (≈ 11.4 µM), the MIC (Escherichia coli strains; Escherichia coli strain NR 17633) was 4 µg/mL (≈ 11.4 µM) and the MIC (Escherichia coli strains; Escherichia coli strain NR 17647) was 4 µg/mL (≈ 11.4 µM). The MIC (Escherichia coli strains; Escherichia coli strain NR 17650) was 4 µg/mL (≈ 11.4 µM) and the MIC (Escherichia coli strains; Escherichia coli strain NR 17661) was over 32 µg/mL.
